{
  "source": "ChEMBL document CHEMBL5653631",
  "about": "“A Potent and Selective ULK1 Inhibitor Suppresses Autophagy and Sensitizes Cancer Cells to Nutrient Stress” (iScience, 2018)",
  "key": {"[1]": {"target": "Transcription initiation factor TFIID subunit 1-like (Homo sapiens) (UniProt Q8IZX4)", "assay": "Inhibition of human recombinant TAF1L at 40 nM related to control ULK1"}, "[2]": {"target": "Serine/threonine-protein kinase 32B (Homo sapiens) (UniProt Q9NY57)", "assay": "Inhibition of human recombinant YANK2 at 40 nM related to control ULK1"}, "[3]": {"target": "cAMP-dependent protein kinase catalytic subunit alpha (Homo sapiens) (UniProt P17612)", "assay": "Inhibition of human recombinant PKACalpha at 40 nM related to control ULK1"}, "[4]": {"target": "Proto-oncogene tyrosine-protein kinase receptor Ret (Homo sapiens) (UniProt P07949)", "sequence (P07949 whole entry)": "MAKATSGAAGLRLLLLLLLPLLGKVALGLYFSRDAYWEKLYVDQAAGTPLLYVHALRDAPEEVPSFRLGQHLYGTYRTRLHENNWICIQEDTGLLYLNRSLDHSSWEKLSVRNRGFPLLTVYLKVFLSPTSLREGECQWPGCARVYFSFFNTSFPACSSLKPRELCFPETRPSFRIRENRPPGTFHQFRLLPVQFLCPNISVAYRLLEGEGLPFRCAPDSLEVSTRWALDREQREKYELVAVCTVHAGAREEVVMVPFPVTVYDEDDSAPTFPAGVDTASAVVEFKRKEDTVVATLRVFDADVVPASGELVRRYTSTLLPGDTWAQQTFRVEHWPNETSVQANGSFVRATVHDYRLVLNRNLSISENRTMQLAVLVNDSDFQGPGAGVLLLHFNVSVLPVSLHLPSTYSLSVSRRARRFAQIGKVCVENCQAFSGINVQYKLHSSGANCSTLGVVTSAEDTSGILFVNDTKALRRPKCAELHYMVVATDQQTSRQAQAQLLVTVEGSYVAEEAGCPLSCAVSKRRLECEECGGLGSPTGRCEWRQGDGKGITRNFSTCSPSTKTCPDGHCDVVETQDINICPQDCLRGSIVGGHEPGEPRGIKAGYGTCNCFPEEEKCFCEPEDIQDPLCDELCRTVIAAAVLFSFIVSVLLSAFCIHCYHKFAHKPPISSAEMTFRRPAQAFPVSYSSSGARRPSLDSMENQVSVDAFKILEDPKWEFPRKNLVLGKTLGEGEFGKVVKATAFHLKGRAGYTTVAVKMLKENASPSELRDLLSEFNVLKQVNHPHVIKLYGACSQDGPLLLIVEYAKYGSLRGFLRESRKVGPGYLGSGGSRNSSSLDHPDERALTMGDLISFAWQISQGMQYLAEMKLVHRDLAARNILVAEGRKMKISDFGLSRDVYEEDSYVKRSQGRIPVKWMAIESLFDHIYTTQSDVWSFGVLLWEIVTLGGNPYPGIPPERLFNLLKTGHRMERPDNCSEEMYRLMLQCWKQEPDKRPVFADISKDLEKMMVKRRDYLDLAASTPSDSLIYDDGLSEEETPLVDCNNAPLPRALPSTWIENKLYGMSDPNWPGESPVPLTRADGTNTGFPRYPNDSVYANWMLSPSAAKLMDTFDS", "assay": "Inhibition of human recombinant RET at 40 nM in presence of ATP by radiometric assay relative to control"}, "[5]": {"target": "Casein kinase II subunit alpha (Homo sapiens) (UniProt P68400)", "assay": "Inhibition of human recombinant CK2a1 at 40 nM in presence of ATP by radiometric assay relative to control"}, "[6]": {"target": "Serine/threonine-protein kinase 10 (Homo sapiens) (UniProt O94804)", "sequence (O94804 whole entry, looked up)": "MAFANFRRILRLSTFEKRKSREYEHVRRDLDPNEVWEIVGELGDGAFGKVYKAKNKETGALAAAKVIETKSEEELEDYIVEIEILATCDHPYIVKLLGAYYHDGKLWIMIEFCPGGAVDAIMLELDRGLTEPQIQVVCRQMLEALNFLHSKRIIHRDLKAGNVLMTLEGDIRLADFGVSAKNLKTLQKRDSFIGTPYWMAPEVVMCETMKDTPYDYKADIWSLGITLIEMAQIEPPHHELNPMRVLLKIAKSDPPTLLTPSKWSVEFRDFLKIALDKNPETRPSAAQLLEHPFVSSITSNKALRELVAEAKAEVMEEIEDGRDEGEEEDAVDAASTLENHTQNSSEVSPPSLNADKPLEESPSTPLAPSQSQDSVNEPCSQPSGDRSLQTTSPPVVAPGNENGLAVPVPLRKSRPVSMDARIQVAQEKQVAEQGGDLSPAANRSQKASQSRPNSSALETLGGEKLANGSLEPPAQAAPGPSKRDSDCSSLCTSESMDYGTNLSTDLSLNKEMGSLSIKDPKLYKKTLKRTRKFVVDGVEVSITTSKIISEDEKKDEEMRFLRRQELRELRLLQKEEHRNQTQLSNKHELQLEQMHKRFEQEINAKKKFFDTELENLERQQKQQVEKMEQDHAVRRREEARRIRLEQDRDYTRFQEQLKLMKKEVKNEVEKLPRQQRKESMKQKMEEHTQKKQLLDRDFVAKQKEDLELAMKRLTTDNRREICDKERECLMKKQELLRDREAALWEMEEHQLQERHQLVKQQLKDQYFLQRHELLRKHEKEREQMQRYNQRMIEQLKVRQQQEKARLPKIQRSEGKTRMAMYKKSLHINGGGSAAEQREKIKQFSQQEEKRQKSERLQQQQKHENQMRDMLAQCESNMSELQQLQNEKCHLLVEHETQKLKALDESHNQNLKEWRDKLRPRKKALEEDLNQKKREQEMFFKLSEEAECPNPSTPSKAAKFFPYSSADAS", "assay": "Inhibition of human recombinant LOK at 40 nM related to control ULK1"}, "[7]": {"target": "Tyrosine-protein kinase Fgr (Homo sapiens) (UniProt P09769)", "assay": "Inhibition of human recombinant FGR at 40 nM related to control ULK1"}, "[8]": {"target": "T1, Tyrosine-protein kinase ITK/TSK (Homo sapiens) (UniProt Q08881)", "T1 sequence (whole entry)": "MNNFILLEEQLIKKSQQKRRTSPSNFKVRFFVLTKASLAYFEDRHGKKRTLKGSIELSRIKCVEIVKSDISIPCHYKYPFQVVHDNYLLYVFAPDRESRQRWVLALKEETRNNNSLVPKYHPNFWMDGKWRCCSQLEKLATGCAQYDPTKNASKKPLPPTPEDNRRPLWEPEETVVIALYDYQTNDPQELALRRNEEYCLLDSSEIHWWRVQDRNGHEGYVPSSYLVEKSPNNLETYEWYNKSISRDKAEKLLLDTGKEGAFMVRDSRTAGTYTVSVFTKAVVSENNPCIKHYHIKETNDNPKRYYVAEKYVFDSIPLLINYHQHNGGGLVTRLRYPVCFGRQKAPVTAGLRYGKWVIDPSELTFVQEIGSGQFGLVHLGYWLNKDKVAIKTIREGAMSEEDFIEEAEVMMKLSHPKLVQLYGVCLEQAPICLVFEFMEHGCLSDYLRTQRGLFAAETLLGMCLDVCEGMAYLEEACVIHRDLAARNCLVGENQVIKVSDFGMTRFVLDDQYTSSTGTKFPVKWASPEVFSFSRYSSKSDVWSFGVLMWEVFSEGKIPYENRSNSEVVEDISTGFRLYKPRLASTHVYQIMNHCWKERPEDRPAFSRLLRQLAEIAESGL", "assay": "Inhibition of human recombinant ITK at 500 nM in presence of ATP by radiometric assay relative to control"}, "[9]": {"target": "T2, Dual specificity mitogen-activated protein kinase kinase 6 (Homo sapiens) (UniProt P52564)", "T2 sequence (whole entry)": "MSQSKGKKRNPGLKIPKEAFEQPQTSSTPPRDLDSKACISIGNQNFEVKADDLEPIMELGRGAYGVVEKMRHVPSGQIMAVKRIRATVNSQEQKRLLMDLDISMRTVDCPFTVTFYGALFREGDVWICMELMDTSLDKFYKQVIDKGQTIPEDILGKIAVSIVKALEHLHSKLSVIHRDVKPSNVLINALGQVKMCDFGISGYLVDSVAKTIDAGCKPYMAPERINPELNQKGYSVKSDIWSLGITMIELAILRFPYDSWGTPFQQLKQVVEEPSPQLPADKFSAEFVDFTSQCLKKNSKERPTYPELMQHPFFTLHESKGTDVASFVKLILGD", "assay": "Inhibition of human recombinant MAP2K6 at 15 nM related to control ULK1"}, "[10]": {"target": "Wee1-like protein kinase (Homo sapiens) (UniProt P30291)", "sequence (P30291 whole entry, looked up)": "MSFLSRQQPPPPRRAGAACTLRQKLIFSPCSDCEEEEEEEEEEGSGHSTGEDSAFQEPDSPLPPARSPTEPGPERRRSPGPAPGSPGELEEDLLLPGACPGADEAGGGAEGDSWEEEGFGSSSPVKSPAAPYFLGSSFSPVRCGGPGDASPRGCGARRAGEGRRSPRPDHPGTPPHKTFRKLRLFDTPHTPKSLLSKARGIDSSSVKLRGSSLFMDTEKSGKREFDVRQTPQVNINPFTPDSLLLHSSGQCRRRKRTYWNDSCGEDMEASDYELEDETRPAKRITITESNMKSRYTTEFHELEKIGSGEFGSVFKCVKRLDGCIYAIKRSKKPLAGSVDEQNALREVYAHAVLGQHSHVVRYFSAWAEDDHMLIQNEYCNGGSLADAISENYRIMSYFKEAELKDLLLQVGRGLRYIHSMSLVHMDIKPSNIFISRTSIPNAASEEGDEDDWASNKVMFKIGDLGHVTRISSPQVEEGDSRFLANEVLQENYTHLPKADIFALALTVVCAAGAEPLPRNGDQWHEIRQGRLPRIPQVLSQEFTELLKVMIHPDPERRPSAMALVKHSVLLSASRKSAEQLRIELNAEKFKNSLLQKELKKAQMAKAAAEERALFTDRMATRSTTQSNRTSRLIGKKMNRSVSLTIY", "assay": "Inhibition of human recombinant Wee1 at 15 nM related to control ULK1"}, "[11]": {"target": "Cyclin-dependent kinase 1 (Homo sapiens) (UniProt P06493)", "sequence (P06493 whole entry, looked up)": "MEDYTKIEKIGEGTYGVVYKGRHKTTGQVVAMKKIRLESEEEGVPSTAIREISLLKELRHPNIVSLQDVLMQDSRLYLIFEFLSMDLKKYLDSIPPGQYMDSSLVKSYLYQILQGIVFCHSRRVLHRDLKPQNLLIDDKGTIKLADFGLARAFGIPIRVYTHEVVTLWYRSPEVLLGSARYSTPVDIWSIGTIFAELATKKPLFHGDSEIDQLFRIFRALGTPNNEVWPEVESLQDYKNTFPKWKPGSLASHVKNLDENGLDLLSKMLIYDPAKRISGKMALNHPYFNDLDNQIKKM", "assay": "Inhibition of human recombinant CDC2 at 15 nM related to control ULK1"}, "[12]": {"target": "Ribosomal protein S6 kinase alpha-5 (Homo sapiens) (UniProt O75582)", "sequence (O75582 whole entry, looked up)": "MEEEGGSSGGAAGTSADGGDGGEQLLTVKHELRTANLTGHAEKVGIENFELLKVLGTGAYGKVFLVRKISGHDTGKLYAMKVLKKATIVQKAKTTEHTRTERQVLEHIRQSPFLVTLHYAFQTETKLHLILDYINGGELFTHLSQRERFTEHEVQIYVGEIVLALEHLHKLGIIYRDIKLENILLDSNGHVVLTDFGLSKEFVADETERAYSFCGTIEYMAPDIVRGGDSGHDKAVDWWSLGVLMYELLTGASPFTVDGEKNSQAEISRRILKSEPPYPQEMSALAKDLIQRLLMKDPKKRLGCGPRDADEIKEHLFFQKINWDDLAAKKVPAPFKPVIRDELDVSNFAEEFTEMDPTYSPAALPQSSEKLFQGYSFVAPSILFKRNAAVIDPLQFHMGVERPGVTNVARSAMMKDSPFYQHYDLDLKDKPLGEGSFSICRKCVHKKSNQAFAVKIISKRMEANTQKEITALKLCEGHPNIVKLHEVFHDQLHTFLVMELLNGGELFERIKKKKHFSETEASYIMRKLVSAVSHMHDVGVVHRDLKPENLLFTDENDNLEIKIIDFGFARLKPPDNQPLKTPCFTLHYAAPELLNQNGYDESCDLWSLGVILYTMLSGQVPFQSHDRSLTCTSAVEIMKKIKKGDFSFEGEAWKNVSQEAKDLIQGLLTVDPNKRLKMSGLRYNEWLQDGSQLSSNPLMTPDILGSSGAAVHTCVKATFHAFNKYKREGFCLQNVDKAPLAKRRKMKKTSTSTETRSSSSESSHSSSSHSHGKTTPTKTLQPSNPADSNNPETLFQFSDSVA", "assay": "Inhibition of human recombinant MSK1 at 15 nM in presence of ATP by radiometric assay relative to control"}, "[13]": {"target": "T3, Tyrosine-protein kinase receptor TYRO3 (Homo sapiens) (UniProt Q06418)", "T3 sequence (whole entry)": "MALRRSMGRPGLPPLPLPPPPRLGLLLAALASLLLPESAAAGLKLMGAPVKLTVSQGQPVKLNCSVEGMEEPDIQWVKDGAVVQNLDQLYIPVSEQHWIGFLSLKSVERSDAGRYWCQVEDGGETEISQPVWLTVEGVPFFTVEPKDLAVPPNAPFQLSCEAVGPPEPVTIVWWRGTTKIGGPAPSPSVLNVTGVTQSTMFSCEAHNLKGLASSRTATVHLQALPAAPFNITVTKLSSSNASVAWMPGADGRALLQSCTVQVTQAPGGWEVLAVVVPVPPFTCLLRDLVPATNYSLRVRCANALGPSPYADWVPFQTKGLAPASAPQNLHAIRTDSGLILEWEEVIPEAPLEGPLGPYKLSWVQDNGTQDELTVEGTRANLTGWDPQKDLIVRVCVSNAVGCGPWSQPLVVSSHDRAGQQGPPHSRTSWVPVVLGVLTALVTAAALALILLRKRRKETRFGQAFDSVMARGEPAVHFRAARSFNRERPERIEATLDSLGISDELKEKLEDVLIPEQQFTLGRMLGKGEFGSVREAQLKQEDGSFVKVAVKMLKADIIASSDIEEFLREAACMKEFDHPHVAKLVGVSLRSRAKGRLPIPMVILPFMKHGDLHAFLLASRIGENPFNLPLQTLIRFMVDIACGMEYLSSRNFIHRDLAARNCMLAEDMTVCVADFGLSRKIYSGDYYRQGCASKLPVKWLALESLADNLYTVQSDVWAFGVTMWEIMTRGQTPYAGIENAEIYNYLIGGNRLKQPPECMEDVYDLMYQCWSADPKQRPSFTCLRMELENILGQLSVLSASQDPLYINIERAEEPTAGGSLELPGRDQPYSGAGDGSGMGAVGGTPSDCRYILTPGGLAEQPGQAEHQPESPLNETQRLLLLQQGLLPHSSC", "assay": "Inhibition of human recombinant TYRO3 at 15 nM in presence of ATP by radiometric assay relative to control"}, "[14]": {"target": "eIF-2-alpha kinase GCN2 (Homo sapiens) (UniProt Q9P2K8)", "assay": "Inhibition of human recombinant GCN2 at 15 nM in presence of ATP by radiometric assay relative to control"}, "[15]": {"target": "Tyrosine-protein kinase Fyn (Homo sapiens) (UniProt P06241)", "sequence (P06241 2-537 limits assumed)": "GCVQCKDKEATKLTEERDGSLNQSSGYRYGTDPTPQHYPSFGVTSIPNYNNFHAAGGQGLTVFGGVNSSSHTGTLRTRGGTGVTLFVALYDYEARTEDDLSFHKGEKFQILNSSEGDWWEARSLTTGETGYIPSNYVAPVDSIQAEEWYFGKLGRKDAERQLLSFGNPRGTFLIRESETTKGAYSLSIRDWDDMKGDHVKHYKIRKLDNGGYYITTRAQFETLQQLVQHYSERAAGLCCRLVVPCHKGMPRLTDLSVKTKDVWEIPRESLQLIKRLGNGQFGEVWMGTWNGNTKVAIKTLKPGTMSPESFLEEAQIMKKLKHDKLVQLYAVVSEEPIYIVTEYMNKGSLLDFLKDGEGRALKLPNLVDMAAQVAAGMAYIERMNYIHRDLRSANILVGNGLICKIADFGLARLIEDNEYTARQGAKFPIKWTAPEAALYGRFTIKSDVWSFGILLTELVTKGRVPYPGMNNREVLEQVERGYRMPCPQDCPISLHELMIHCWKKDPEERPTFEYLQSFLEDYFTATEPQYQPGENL", "assay": "Inhibition of human recombinant FYN at 15 nM related to control ULK1"}, "[16]": {"target": "Serine/threonine-protein kinase NIM1 (Homo sapiens) (UniProt Q8IY84)", "sequence (Q8IY84 whole entry)": "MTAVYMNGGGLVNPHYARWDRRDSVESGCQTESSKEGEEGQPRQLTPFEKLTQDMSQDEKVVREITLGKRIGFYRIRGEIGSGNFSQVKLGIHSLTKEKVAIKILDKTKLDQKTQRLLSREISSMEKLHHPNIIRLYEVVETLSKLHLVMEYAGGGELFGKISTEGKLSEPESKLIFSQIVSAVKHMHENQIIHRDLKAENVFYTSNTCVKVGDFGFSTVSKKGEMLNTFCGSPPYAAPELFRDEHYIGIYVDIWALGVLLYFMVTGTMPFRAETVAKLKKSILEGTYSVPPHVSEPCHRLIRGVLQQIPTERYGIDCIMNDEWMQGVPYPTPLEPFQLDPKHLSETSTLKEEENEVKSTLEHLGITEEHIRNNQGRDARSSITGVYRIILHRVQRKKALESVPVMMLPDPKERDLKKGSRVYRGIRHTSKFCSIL", "assay": "Inhibition of human recombinant NIM1 at 15 nM related to control ULK1"}},
  "data": [
    {"smiles": "O=C(N[C@@H](C1CC1)C(F)(F)F)c1cc(-c2cnn3cc(-c4ccc(F)cc4)cnc23)cs1", "values": [
      {"measurement": "fold change (FC)", "setting": "[1]", "value": 0.64},
      {"measurement": "fold change (FC)", "setting": "[2]", "value": 0.04},
      {"measurement": "fold change (FC)", "setting": "[3]", "value": 0},
      {"measurement": "inhibition", "setting": "[4]", "value": 0, "unit": "%"},
      {"measurement": "inhibition", "setting": "[5]", "value": 7, "unit": "%"},
      {"measurement": "fold change (FC)", "setting": "[6]", "value": 0},
      {"measurement": "fold change (FC)", "setting": "[7]", "value": 0.05}
    ]},
    {"smiles": "CNC(=O)c1ccccc1Oc1nc(Nc2cc(OC)c(OC)c(OC)c2)ncc1Br", "values": [
      {"measurement": "inhibition", "setting": "[8]", "value": 1, "unit": "%"}
    ]},
    {"smiles": "CC(C)[C@H](NC(=O)c1cc(-c2cnn3cc(-c4ccc(OCCN5CCCCC5)cc4)cnc23)cs1)C(F)(F)F", "values": [
      {"measurement": "fold change (FC)", "setting": "[9]", "value": 0.06},
      {"measurement": "fold change (FC)", "setting": "[10]", "value": 0.17},
      {"measurement": "fold change (FC)", "setting": "[11]", "value": 0.27},
      {"measurement": "inhibition", "setting": "[12]", "value": 2, "unit": "%"},
      {"measurement": "inhibition", "setting": "[13]", "value": 0, "unit": "%"},
      {"measurement": "inhibition", "setting": "[14]", "value": 8, "unit": "%"},
      {"measurement": "fold change (FC)", "setting": "[15]", "value": 0.18},
      {"measurement": "fold change (FC)", "setting": "[16]", "value": 0.07}
    ]}
  ]
}
